According to patent publication US5792742A, “Fibrin-binding peptide fragments of fibronectin” (New York University, priority 1994, dated 1998):
pIC50: −log10 of the molar value. “Also recorded” adds a separate entry of the source. Read-outs that look alike come from different tables or passages of the source.

Experiments:
[1] = test system: fibrin; assay: Direct binding ELISA on fibrin-coated microtiter plates; conditions: for binding to fibrin-coated wells: ELISA, room temperature, 1 hr
Protocol: The preparation of fibrin coated microtiter plates was adapted from a method described by Christman et al., Biochim. Biophys. Acta. […] Microtiter (Immulon) plates were coated with fibrinogen at a concentration of 50-1000 ng/well/0.1 ml of Tris buffered saline (TBS). The plates were dried for 24 hours at 37° C. and 0.1 ml of thrombin (20 NIH units/100 ml) containing TRASYLOL™ (aprotinin) (400 K.I units/100 ml) in TBS was added to each well and the plates incubated for 2 hours at 37° C. Each well is washed one time with PBS and the plates are blocked for 1.5 hours with 1% BSA in TBS to prevent non-specific binding. A constant concentration of fibronectin and the 11 kDa fibrin-binding polypeptide (500 ng/0.1 ml) in 50 mM Tris-HCl, 0.1M NaCl, pH 7.6 (FBB) were incubated separately with fibrin coated microtiter wells (50-1000 ng) for 1 hr at room temperature (23° C.).
The wells were washed three times with FBB containing 0.05% Tween 20 (FBBT) and incubated for 1 hour with 0.05 ml of the a polyclonal anti-fibronectinantiserum (Calbiochem) or the purified IgG fraction of anti-11 kDa rabbit antisera, respectively, at a concentration of 1 μg/ml in FBBT containing 0.1% BSA (FBBT/BSA). Following three washes with FBBT, the wells were incubated with 0.05 ml of alkaline phosphatase labeled goat anti-rabbit IgG (TAGO) at a concentration of 2 μg/ml in FBBT/BSA, for 1 hour. The reaction was developed with 0.05 ml of […] p-nitrophenyl phosphate (Sigma phosphatase substrate tablets) in 10% diethanolamine, pH 9.8 containing 1 mM MgCl2.
2. […] Binding of ^4 F1.^5 F1 to fibrin coated microtiter plates was examined by ELISA as described above. Microtiter wells were coated with fibrin (50-1000 ng) and blocked, as described earlier, and incubated with the module pair ^4 F1.^5 F1 (500 ng/0.1 ml or 1000 ng/0.1 ml in FBB) for 1 hour, at room temperature.
Fibrin-binding activity was also assessed by an ELISA. Fn was reacted with fibrin-coated microtiter plates and bound Fn was determined by incubation with a polyclonal rabbit anti-Fn antiserum followed by alkaline phosphatase-labeled anti-rabbit Ig.

[2] = test system: fibrin; assay: Binding of 35S-methionine labeled recombinant proteins (COS cell supernatants) to fibrin-SEPHAROSE, autoradiogram quantitation
Source text: Recombinant proteins from both the N-terminal and C-terminal fibrin binding sites of the Fn molecule were expressed by transfection into ^35 S-labeled (methionine) COS cells, as described by Schwarzbauer, J. Cell Biol., 113:1463-1473 and Sottile et al, J. Biol. Chem., 266:12840-12843, (1991) and their fibrin-binding activity determined by affinity chromatography experiment. The ^35 S-methionive labeled protein from the N-terminal site was a 10.5 kDa protein that comprised the ^4 F1.^5 F1 modules (^4 F1.^5 F1). The ^35 S-methionive labeled 25 kDa recombinant protein from the C-terminal fibrin binding site of Fn expressed by the COS cells commenced in the ^10 F1 and extended to the end of the molecule (^10 F1-end). For the affinity chromatography experiments each of the cell culture supernatants that contained the separately expressed proteins (1.5 ml) were combined with 0.4 ml of a fibrin-SEPHAROSE affinity matrix and incubated overnight at 4 C. with end over rotation. Upon removal of the supernatant by centrifugation, the matrices were washed extensively with FBB (10 times with a 0.5 ml wash volume each ); after each wash the matrices were centrifuged and the supernatants removed. […] Aliquots (50 ul) of each fraction was counted in a LS 6000 Scintilation Counter, the corresponding fractions pooled, and analyzed by SDS-PAGE followed by autoradiography. The autoradiograms were exposed for two weeks and scanned with a pdi Desktop Scanner. […] As a control, to indicate the relative level of expression of the recombinant proteins and to confirm their position in the autoradiograms, an aliquot of each COS cell culture supernatant was immunoprecipited with an anti-fibronectin antibody and compared with the ^35 S-labeled proteins retained by the fibrin affinity chromatography matrices by SDS-PAGE and autoradiography. […] The Protein A-Sepharose beads were separated by centrifugation, washed two times with Tris-buffered saline, resuspended in Laemmli sample buffer and applied to SDS-PAGE.
FIG. 30 illustrates the binding of ^35 S-methionine labeled recombinant modules from both the N- (^4 F1.^5 F1) and C-terminal (^10 F1-end) fibrin binding sites of Fn to fibrin-SEPHAROSE affinity matrices. […] The results of the autoradiograms are represented by the graphs which indicate the image analysis of the bound recombinant proteins.

[3] = test system: fibrin; conditions: for pIC50: read-out: IC50, 50% inhibition of binding of biotinylated Fn to fibrin, 200 ng fibrin, 1 hour 22° C.
Protocol: Since the anti-Fn detection system described for the ELISA above could not be used in Fn competition assays employing the intact Fn molecule or the 25.8 kDa proteolytic fragment, purified Fn was biotinylated using water soluble NHS-LC-Biotin (Pierce Chemm. Co.; according to the manufacturer's instructions) and binding to fibrin detected by alkaline phosphatase conjugated streptavidin (diluted 1/500 in FBBT/BSA) for 1 hour at 22° C., followed by the addition of p-nitrophenyl phosphate, as described above. To ensure that the biotinylation of the Fn had not affected its ability to bind to fibrin, fibrin-binding activity was tested by incubating increasing concentrations of biotinylated Fn (10-300 ng/0.1 ml FBB) with the fibrin-coated wells (200 ng) and detected (see FIG. 28A) using alkaline phosphatase-conjugated streptavidin and the reaction developed as described for Direct Elisa.
To compare the relative fibrin-binding affinities of the ^4 F1.^5 F1 recombinant module pair and the 25.9 kDa proteolytic fragment (^1 F1-^5 F1) with that of the native Fn molecule, these purified proteins were competed with biotinylated plasma Fn for binding to fibrin coated wells and the extent of inhibition of binding assessed by incubation with alkaline phosphatase-conjugated streptavidin. […] Biotinylated Fn (100 ng/0.1 ml FBB: 2.3 nM) was combined with increasing concentrations (0-10 μM) of either unlabeled Fn, the 25.9 kDa proteolytic fragment, or the separate ^4 F1.^5 F1, and ^10 F1 recombinant modules and incubated with the fibrin-coated microtiter wells for 1 hour at 22° C. […] Bound biotinylated Fn was quantitated as described above.

[4] = test system: fibrin; assay: Fibrin-SEPHAROSE affinity chromatography (binding and elution); set-up: species or system bovine
Protocol: Bovine fibrinogen was cross-linked to CNBr-activated SEPHAROSE™ (5 mg/ml beads) according to the manufacturer's instructions. Coupled fibrinogen was subsequently converted to fibrin by incubation with human thrombin to a final concentration of 5 NIH units/ml and 100 K.I. (kallikrein inhibitory) units/ml of aprotinin (in 0.05M Tris-HCI buffer, pH 7.6, containing 0.1M NaCl and 0.01M EDTA) for three hours, at room temperature (Gold, et al. (1983) Biochemistry 22, 4113-4119).
1.0M NaCl in 0.05M tris buffer, pH 8.0.
The fibrin-binding activity of the proteolytically derived 25.9 kDa fragment of Fn was determined by its ability to bind to a fibrin affinity matrix. […] FBB was used to equilibrate and wash the column. Following warming of the column to 22° C., the column was washed with FBB until absorbance at 280 nm (A280) was less than 0.01, and bound protein eluted with 0.05M Tris-HCl, 0.5M NaCl, 6M urea buffer, pH 7.6.
The module (500 μg/1.0 ml) was incubated for 4 hours (while rotating) at 4° C. in the presence of 1.0 ml fibrin-SEPHAROSE™ (5 mg fibrin/ml SEPHAROSE™ beads) equilibrated in […] Tris-HCl, 0.1M NaCl buffer, pH 7.6.
The 11 KDa peptide (50 μg/0.206 ml) was radiolabeled using the IODO-BEAD method (Pierce Chemical). The peptide was added to one IODO-BEAD in the presence of 100 μCi ^125 I (17.4 Ci/mg, New England Nuclear) and incubated on ice for 10 minutes. The bead was removed and the free ^125 I removed by chromatography through a PD10 column containing SEPHADEX™ G-25 (Pharmacia). […] The radioiodinated 11 kDa fibrin-binding peptide (500 μg/1.5 ml) was combined with 1 ml of fibrin-SEPHAROSE™ (5 mg fibrin/ml beads) equilibrated with 50 mM Tris-HCl, 0.1M NaCl buffer, pH 7.6, and rotated for 4 hours, at 4° C. The mixture was poured onto a disposable column (0.6 cm×8.0) and the unbound protein washed through. The column was equilibrated to room temperature and washed with the equilibration buffer.

[5] = test system: fibrin; assay: ELISA: competitive inhibition of fibronectin binding to fibrin by type 1 recombinant modules; conditions: for maximum inhibition of Fn binding to fibrin: saturating concentration
Protocol: Fibrin-binding activity was also assessed by an ELISA. Fn was reacted with fibrin-coated microtiter plates and bound Fn was determined by incubation with a polyclonal rabbit anti-Fn antiserum followed by alkaline phosphatase-labeled anti-rabbit Ig. […] Thus, on a mole-per-mole basis, assuming complete attachment of all the fibrinogen applied to the polystyrene plate, total proteolytic conversion to fibrin, and accessibility of the binding sites, 0.8 moles of Fn per mole of fibrin were required to achieve maximum binding (assuming a molecular weight of 340 kDa for the fibrin hexamer and 440 kDa for the Fn dimer).
The recombinant Fn modules were used to inhibit the binding of Fn to the fibrin-coated microtiter plates. […] At this saturating concentration, the binding of Fn to fibrin was inhibited by 70%.

[6] = test system: fibrin; assay: Reversibility (displacement) of 125I-11 kDa FBP binding to fibrin; conditions: negative control
Protocol: Detachable microtiter wells previously coated with 15 ng of fibrin were incubated with 100 ng/0.1 ml FBB (90 nM) of ^125 I-11 kDa for 1 hour at 22° C. The unbound radiolabeled protein was removed by extensive washing with FBB containing 0.1% Tween 20. […] The iodinated 11 kDa that remained bound to the removable wells was determined by quantitating the radioactivity attached to the individual wells in a gamma counter. Results were expressed as percentage of control wells incubated with buffer alone.

[7] = 35S-methionine labeled, optical density of autoradiogram

^4 F1.^5 F1: recombinant 93 amino acid module pair, fourth and fifth type 1 modules of human fibronectin, residues 152-244 of SEQ ID NO:1
binding to fibrin-coated wells [1]: bound to fibrin | relative affinity for fibrin [2]: lower affinity | % of bound protein released by warming to 22° C. [2, 7]: 88% | amount relative to antibody (w/w) used to obtain maximal inhibition [3]: 16 times | blocked binding of fibronectin to fibrin (summary, FIG. 29) [3]: 36% | maximal inhibition of biotinylated Fn binding to fibrin ([3]; 10 μM of protein (5,000 molar excess)): 67% | maximum inhibition of Fn binding to fibrin (FIG. 29) ([3]; 0.1-25 μg inhibitor, biotinylated Fn 100 ng, fibrin 200 ng): 67% | pIC50 ([3]; biotinylated Fn 2.3 nM): 6.15 | elution of protein remaining bound after warming to 22° C. with 1.0M urea and finally 2.0M urea [4]: eluted all the remaining bound | elution of protein remaining bound after warming to 22° C. with 1.0M NaCl ([4]; 18% of total protein applied remained bound): could not be eluted | % of protein applied eluted on warming the column to 22° C. (room temperature) ([4]; FBB buffer): 9% | % of protein applied eluted with 0.5M NaCl, 6.0M urea buffer ([4]; after warming to 22° C.): 18% | % of protein applied retained by fibrin-SEPHAROSE ([4]; binding at 4° C., 500 μg applied): 27% | % of protein applied retained by fibrin-Sepharose with increasing amounts applied ([4]; increasing amounts applied to a fixed volume of fibrin-Sepharose): 25% | concentration at which maximum inhibition was achieved ([5]; Fn 2.3 nM): 10 µM | molar excess at maximum inhibition ([5]; Fn 2.3 nM): 5,000 | molar excess over Fn at 50% inhibition ([5]; Fn 2.3 nM): 325 | pIC50 ([5]; Fn 100 ng (2.3 nM), fibrin 200 ng, read-out: concentration decreasing Fn binding to fibrin to 50%): 6.12 | maximum inhibition of Fn binding to fibrin [5]: 70%

^7 F1: recombinant seventh type 1 module from human fibronectin, residues 434-484 of SEQ ID NO:1 [reference compound]
binding to fibrin-Sepharose [4]: did not bind | inhibition of the binding of Fn to fibrin (non-binding modules) ([5]; up to 5,000-50,000 molar excess compared to Fn): < 20%

^10 F1-end: 25 kDa recombinant protein from COS cells commencing in the tenth type 1 module and extending to the end of fibronectin
relative affinity for fibrin [2]: higher relative affinity | % of bound protein released by warming to 22° C. [2, 7]: 35% | % of bound protein requiring 6M urea in 0.5M NaCl for elution [2, 7]: 65%

^10 F1: recombinant 46 amino acid tenth type 1 module from human fibronectin, residues 2141-2186 of SEQ ID NO:1 [reference compound]
fibrin binding as single module [3]: did not, as a single module, exhibit fibrin-binding | inhibition of biotinylated Fn binding (non-fibrin-binding modules) ([3]; 0-10 μM competitor, biotinylated Fn 2.3 nM): 10% | binding to fibrin-Sepharose [4]: did not bind

egg lysozyme: unrelated protein employed as negative control
displacement of bound 125I-11 kDa FBP [6]: unable to disrupt; also recorded: unable to displace

fibronectin: purified intact human plasma fibronectin, 440 kDa dimer [reference compound]
amount giving maximum binding per 550 ng of fibrin [1]: approximately 500 ng | concentration at saturation of binding to fibrin ([1]; 200 ng Fn to 200 ng of fibrin (5.88 nM)): ~4.54 nM | binding to fibrin-coated wells [1]: bound to the fibrin-coated wells in a concentration dependent manner | moles per mole of fibrin required to achieve maximum binding ([1]; assuming 340 kDa fibrin hexamer, 440 kDa Fn dimer): 0.8 | concentration required for complete inhibition of biotinylated Fn binding ([3]; biotinylated Fn 2.3 nM): 2.2 µM | molar excess required for complete inhibition ([3]; biotinylated Fn 2.3 nM): 1000 | pIC50 ([3]; biotinylated Fn 2.3 nM): 7.70

t-PA type 1 module: single type 1 module from tissue plasminogen activator (CRDEKTQMIYQQHQSWLRPVLRSNRVEYCWCNSGRAQCH) [reference compound]
maximum inhibition of Fn binding to fibrin [5]: 55%
